# Legend:
# Type in all cases: in vivo
# [1] = test system: upland rice (Oryza sp., var. Tebonnet, RICE); experiment: Pre-emerge test, crop safety; details: pre-emerge, 14 days after application, rating scale 0-100
# In short: (§1)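 Plants grown in 10 cm pots of sandy loam mix received acetone-dissolved compounds through a moving flat-fan nozzle. Doses ranged from 15 to 1000 g ai/ha. Pre-emerge pots were seeded one day earlier, post-emerge pots 8–21 days earlier. Fourteen days on, each pot was graded 0–100 for damage.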
# [2] = test system: field corn (Zea mays L., var. Dekalb 535, CORN); experiment: Pre-emerge test, crop safety; details: pre-emerge, 14 days after application, rating scale 0-100
# In short: as §1
# [3] = test system: redroot pigweed (Amaranthus retroflexus, AMARE); experiment: Pre-emerge test, greenhouse herbicide activity screening; details: pre-emerge, 14 days after application, rating scale 0-100
# In short: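 Compounds in acetone were track-sprayed at 187 l/ha, 15–1000 g ai/ha, onto sandy loam pots. Pre-emerge seeds were sown one day before spraying, with surface watering afterwards. Post-emerge plants were at the 2–3 leaf stage and sprayed with 0.25% v/v non-ionic surfactant. Injury was rated 0–100 at 14 days.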
# [4] = test system: upland rice (Oryza sp., var. Tebonnet, RICE); experiment: Post-emerge test, crop safety; details: post-emerge, 14 days after application, rating scale 0-100
# In short: (§2)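 Each test used a mechanized track sprayer delivering 187 l/ha of acetone solution at 15–1000 g ai/ha. Post-emerge foliage at 2–3 leaves was treated with added 0.25% v/v non-ionic surfactant and bottom-watered only. Injury was assessed on day 14, where 100 means total kill.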
# [5] = test system: field corn (Zea mays L., var. Dekalb 535, CORN); experiment: Post-emerge test, crop safety; details: post-emerge, 14 days after application, rating scale 0-100
# In short: as §2
# [6] = test system: lambsquarters (Chenopodium album, CHEAL); experiment: Pre-emerge test, greenhouse herbicide activity screening; details: pre-emerge, 14 days after application, rating scale 0-100
# Description: (§3) A standard greenhouse herbicide activity screening system was used to evaluate the herbicidal efficacy and crop safety of these test compounds. Seven broadleaf weed species including redroot pigweed (Amaranthus retroflexus, AMARE, velvetleaf (Abutilon theophrasti, ABUTH), sicklepod (Cassia obtusifolia, CASOB), ivyleaf morningglory (Ipomoea hederacea, IPOHE), lambsquarters (Chenopodium album, CHEAL), common ragweed (Ambrosia artemisizfolia L., AMBEL), and cocklebur (Xanthium strumarium, XANST) were used as test species. Four grass weed species including green foxtail (Setaria viridis, SETVI), barnyardgrass (Echinochloa crus-galli, ECHCG), johnsongrass (Sorghum halepense, SORHA), and large crabgrass (Digitaria sanguinalis, DIGSA) were also used. In addition, three crop species, field corn (Zea mays L., var. Dekalb 535, CORN), soybean (Glycine max L., var. Pella 86, SOY), and is upland rice (Oryza sp., var. Tebonnet, RICE) were included.
# (§4) All plants were grown in 10 cm square plastic pots which were filled with a sandy loam soil mix. For pre-emerge tests, seeds were planted one day prior to application of the test compounds. For post-emerge tests, seeds were planted 8-21 days prior to the test to allow emergence and good foliage development prior to application of the test substances. At the time of the post-emerge application, plants of all species were usually at the 2-3 leaf stage of development.
# (§5) All test compounds Were dissolved in acetone and applied to the test units in a volume of 187 l /ha. Test materials were applied at rates ranging from 15 g ai/ha to 1000 g ai/ha using a track sprayer equipped with a TJ8001E even flow flat fan spray nozzle. Plants were arranged on a shelf so that the top of the canopy (post-emerge) or top of the soil surface (pre-emerge) was 40-45 cm below the nozzle. Pressurized air was used to force the test solution through the nozzle as it was mechanically advanced (via electrically driven chain drive) over the top of all test plants/pots. This application simulates a typical commercial field herbicide application.
# (§6) In the post-emerge test, a commercial non-ionic surfactant was also included (0.25% v/v) to enhance wetting of the leaf surfaces of target plants. Immediately after application, test units of the pre-emerge applications were watered at the soil surface to incorporate the test materials. Subsequently, these test units were bottom-watered. Post-emerge test units were always bottom-watered.
# (§7) At 14 days after application of the test materials, phytotoxicity ratings were recorded. A rating scale of 0-100 was used as previously described in Research Methods in Weed Science, 2nd edition, B. Truelove, Ed., Southern Weed Science Society, Auburn University, Auburn, Ala. 1977. Briefly, “0” corresponds to no damage and “100” corresponds to complete death of all plants in the test unit. This scale was used both to determine efficacy against weed species and damage to crop species. Herbicide activity data for various compounds of this invention, which are shown by compound No. in Tables 1-8, are shown in Tables 11 and 12.
# [7] = test system: large crabgrass (Digitaria sanguinalis, DIGSA); experiment: as above; details: pre-emerge, 14 days after application, rating scale 0-100
# Description: as §3, §4, §5, §6, §7
# [8] = test system: barnyardgrass (Echinochloa crus-galli, ECHCG); experiment: as above; details: pre-emerge, 14 days after application, rating scale 0-100
# Description: as §3, §4, §5, §6, §7
# [9] = test system: ivyleaf morningglory (Ipomoea hederacea, IPOHE); experiment: as above; details: pre-emerge, 14 days after application, rating scale 0-100
# Description: as §3, §4, §5, §6, §7
# [10] = test system: green foxtail (Setaria viridis, SETVI); experiment: as above; details: pre-emerge, 14 days after application, rating scale 0-100
# Description: as §3, §4, §5, §6, §7
# [11] = test system: velvetleaf (Abutilon theophrasti, ABUTH); experiment: as above; details: pre-emerge, 14 days after application, rating scale 0-100
# Description: as §3, §4, §5, §6, §7
# [12] = test system: sicklepod (Cassia obtusifolia, CASOB); experiment: as above; details: pre-emerge, 14 days after application, rating scale 0-100
# Description: as §3, §4, §5, §6, §7
# [13] = test system: lambsquarters (Chenopodium album, CHEAL); experiment: Post-emerge test, greenhouse herbicide activity screening; details: post-emerge, 14 days after application, rating scale 0-100
# Description: as §3, §4, §5, §6, §7
# [14] = test system: large crabgrass (Digitaria sanguinalis, DIGSA); experiment: as above; details: post-emerge, 14 days after application, rating scale 0-100
# Description: as §3, §4, §5, §6, §7
# [15] = test system: barnyardgrass (Echinochloa crus-galli, ECHCG); experiment: as above; details: post-emerge, 14 days after application, rating scale 0-100
# Description: as §3, §4, §5, §6, §7
# [16] = test system: redroot pigweed (Amaranthus retroflexus, AMARE); experiment: as above; details: post-emerge, 14 days after application
# Description: as §3, §4, §5, §6, §7
# [17] = test system: ivyleaf morningglory (Ipomoea hederacea, IPOHE); experiment: as above; details: post-emerge, 14 days after application, rating scale 0-100
# Description: as §3, §4, §5, §6, §7
# [18] = test system: green foxtail (Setaria viridis, SETVI); experiment: as above; details: post-emerge, 14 days after application, rating scale 0-100
# Description: as §3, §4, §5, §6, §7
# [19] = test system: velvetleaf (Abutilon theophrasti, ABUTH); experiment: as above; details: post-emerge, 14 days after application, rating scale 0-100
# Description: as §3, §4, §5, §6, §7
# [20] = test system: sicklepod (Cassia obtusifolia, CASOB); experiment: as above; details: post-emerge, 14 days after application, rating scale 0-100
# Description: as §3, §4, §5, §6, §7
smiles,measurement,setting,value
COc1c(Cl)cc(F)c(-n2c(=O)cc(C(F)(F)F)n(C)c2=O)c1NN=Cc1ccc(F)cc1F [15-20],phytotoxicity rating RICE,[1]; 63 g ai/ha,70
same,phytotoxicity rating RICE,[1]; 250 g ai/ha,100
same,phytotoxicity rating CORN,[2]; 63 g ai/ha,65
same,phytotoxicity rating CORN,[2]; 250 g ai/ha,95
same,phytotoxicity rating AMARE,[3]; 63 g ai/ha,100
same,phytotoxicity rating AMARE,[3]; 250 g ai/ha,100
same,Post-emerge Herbicidal Activity RICE (crop damage rating),[4]; 63 g ai/ha,35
same,Post-emerge Herbicidal Activity RICE (crop damage rating),[4]; 250 g ai/ha,80
same,Post-emerge Herbicidal Activity CORN (crop damage rating),[5]; 63 g ai/ha,40
same,Post-emerge Herbicidal Activity CORN (crop damage rating),[5]; 250 g ai/ha,85
same,phytotoxicity rating CHEAL,[6]; 63 g ai/ha,100
same,phytotoxicity rating CHEAL,[6]; 250 g ai/ha,100
same,phytotoxicity rating DIGSA,[7]; 63 g ai/ha,100
same,phytotoxicity rating DIGSA,[7]; 250 g ai/ha,100
same,phytotoxicity rating ECHCG,[8]; 63 g ai/ha,50
same,phytotoxicity rating ECHCG,[8]; 250 g ai/ha,100
same,phytotoxicity rating IPOHE,[9]; 63 g ai/ha,80
same,phytotoxicity rating IPOHE,[9]; 250 g ai/ha,80
same,phytotoxicity rating SETVI,[10]; 63 g ai/ha,100
same,phytotoxicity rating SETVI,[10]; 250 g ai/ha,100
same,phytotoxicity rating ABUTH,[11]; 63 g ai/ha,100
same,phytotoxicity rating ABUTH,[11]; 250 g ai/ha,100
same,phytotoxicity rating CASOB,[12]; 63 g ai/ha,60
same,phytotoxicity rating CASOB,[12]; 250 g ai/ha,100
same,Post-emerge Herbicidal Activity CHEAL (phytotoxicity rating),[13]; 63 g ai/ha,100
same,Post-emerge Herbicidal Activity CHEAL (phytotoxicity rating),[13]; 250 g ai/ha,100
same,Post-emerge Herbicidal Activity DIGSA (phytotoxicity rating),[14]; 63 g ai/ha,30
same,Post-emerge Herbicidal Activity DIGSA (phytotoxicity rating),[14]; 250 g ai/ha,90
same,Post-emerge Herbicidal Activity ECHCG (phytotoxicity rating),[15]; 63 g ai/ha,50
same,Post-emerge Herbicidal Activity ECHCG (phytotoxicity rating),[15]; 250 g ai/ha,100
same,Post-emerge Herbicidal Activity AMARE (phytotoxicity rating),"[16]; 63 g ai/ha, rating scale 0-100 (0 no damage, 100 complete death)",100
same,Post-emerge Herbicidal Activity AMARE (phytotoxicity rating),"[16]; 250 g ai/ha, rating scale 0-100",100
same,Post-emerge Herbicidal Activity IPOHE (phytotoxicity rating),[17]; 63 g ai/ha,100
same,Post-emerge Herbicidal Activity IPOHE (phytotoxicity rating),[17]; 250 g ai/ha,100
same,Post-emerge Herbicidal Activity SETVI (phytotoxicity rating),[18]; 63 g ai/ha,80
same,Post-emerge Herbicidal Activity SETVI (phytotoxicity rating),[18]; 250 g ai/ha,100
same,Post-emerge Herbicidal Activity ABUTH (phytotoxicity rating),[19]; 63 g ai/ha,100
same,Post-emerge Herbicidal Activity ABUTH (phytotoxicity rating),[19]; 250 g ai/ha,100
same,Post-emerge Herbicidal Activity CASOB (phytotoxicity rating),[20]; 63 g ai/ha,80
same,Post-emerge Herbicidal Activity CASOB (phytotoxicity rating),[20]; 250 g ai/ha,100
